Source: PubChem BioAssay (NCI)
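Interpolation was linear, between the two tested concentrations surrounding the appropriate level; five concentrations were tested over 48 hours in 96-well plates. TGI is the concentration that stops growth completely.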

What was measured:
Assay in all cases: growth of human tumour cells (NCI), 48 h
[1] = tested on: SN12C renal
[2] = tested on: RXF 393 renal
[3] = tested on: 786-0 renal
[4] = tested on: HOP-92 NSCLC
[5] = tested on: NCI/ADR-RES ovarian
[6] = tested on: HCT-15 colon
[7] = tested on: BT-549 breast
[8] = tested on: UACC-257 melanoma
[9] = tested on: K-562 leukemia
[10] = tested on: MDA-N
[11] = tested on: NCI-H460 lung

SMILES	TGI [1] [µM]	TGI [2] [µM]	TGI [3] [µM]	TGI [4] [µM]	TGI [5] [µM]	TGI [6] [µM]	TGI [7] [µM]	TGI [8] [µM]	TGI [9] [µM]	TGI [10] [µM]	TGI [11] [µM]
CSc1c(C#N)c(N)n(-c2ccc(Cl)cc2)c(=O)c1C#N	> 100	> 100	> 100	> 100	> 100	> 100	> 100	> 100	> 100	> 100	> 100
c1ccc(CC2COC(c3cccs3)=N2)cc1 (stereo unspecified)	> 100	> 100	> 100	> 100	> 100	> 100	> 100	> 100	> 100	> 100	> 100
CCOC(=O)Cn1nnc2ccc(Nc3nc4ccccc4nc3-c3ccccc3)cc21	> 100	> 100	> 100	> 100	> 100	> 100	> 100	> 100	> 100	> 100	> 100
c1ccc(N=C2c3ccsc3C(=Nc3ccccc3)c3ccsc32)cc1	3.02	3.52	6.25	9.37	14.4	4.12	3.6	2.67	10.4	0.554	4.03
CC1(C)CC(=O)c2c(nc3c4c([nH]c(-c5ccc(Br)cc5)c24)CC(C)(C)C3)C1	> 100	65.3	91	> 100	> 100	> 100	> 100	> 100	> 100	> 100	> 100
COc1cc(CNc2nc3ccccc3nc2C(=O)O)cc(OC)c1OC	> 100	> 100	> 100	> 100	> 100	> 100	> 100	> 100	> 100	> 100	> 100
O=C1c2c(Br)sc(Br)c2[C@@H](NC(=O)C(F)(F)F)C1Br (stereo partly specified)	8.33	5.22	5.13	6.69	11	4.61	10.1	3.97	4.17	9.14	31
C=CCOc1ccc(C2C(C(=O)OC)C(=O)CC(O)(c3ccccc3)C2C(=O)OC)cc1OC (stereo unspecified)	> 100	37.2	39	38.5	66	> 100	> 100	> 100	> 100	> 100	> 100
Clc1ccc2oc(CCc3ccccc3)nc2c1	> 100	99.3	> 100	> 100	> 100	> 100	> 100	> 100	> 100	> 100	> 100
O=C(O)c1cc(CCc2cc(O)ccc2O)ccc1O	> 100	> 100	> 100	> 100	> 100	> 100	> 100	> 100	> 100	27.1	> 100
CCN(CC)c1nnc(CCCCCCCCc2nnc(N(CC)CC)o2)o1	> 100	> 100	> 100	> 100	> 100	> 100	> 100	> 100	> 100	> 100	> 100
